Measured values: patent publication US7385026B1, “Modified ghrelin polypeptides” (priority 1999, dated 2008)
“And” between values parts separate entries of the source, which are not always exact repeats. Equal entries are not always repeated. Where two headings read alike, the source gives them in different places. Square brackets hold non-standard residues; d marks the D form. Peptide text beside a SMILES is read from it. * marks the point of attachment. d2Nal = N[C@H](Cc1ccc2ccccc2c1)C(=O)O; Octanoyl = CCCCCCCC(=O)*; Aib = CC(C)(N)C(=O)O

Tests used:
IGS-SD strain rats = assay: GH-releasing activity of long-chain ghrelin derivatives in rat (plasma GH 15 min after i.v.); type: in vivo; conditions: for GH level in plasma in 15 min. after administration, M ± S.D.: n=3; for GH level in plasma in 15 min. after administration, individual rats (Rat 1-3): rats under Nembutal; for GH-releasing activity (in words): i.v., plasma GH at 15 minutes
Description: Fifteen minutes after administration, plasma was collected, and the concentration of GH in plasma was measured by radioimmunoassay (Biotrak/Amersham). Separately, 0.2% bovine serum albumin (BSA)-physiological saline, 6 nmol/kg rGhrelin and hGhrelin, or 80 nmol/kg Ipamorelin (Compound 80) was administered into other rats as the control, respectively, and the concentrations of GH in plasma in 15 minutes after administration were compared (for each sample, n=3).

rat GHS-receptor (GHR-R) = target: T1, rat GHS-receptor (GHR-R) (Rattus norvegicus, UniProt O08725); assay: Ca-releasing activity (increase in intracellular calcium) in CHO-GHSR62 cells, FLIPR; type: cell-based
T1 construct: A full-length cDNA for rat GHR-R was obtained by RT-PCR; expressed in transfected cells
Procedure, shortened: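 CHO cells stably expressing full-length rat GHS-R (CHO-GHSR62) were cultured 12–15 h, loaded with 4 μM Fluo4 for 1 h and washed with Hank's BSS containing 20 mM Hepes and 2.5 mM probenecid. Ca-releasing activity of ghrelin peptides, fragments or derivatives was read by FLIPR as the fluorescence change after sample addition.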

[1] = CHO-GHSR62 cells (CHO cells expressing rat GHS receptor), FLIPR, read-out: Ca-releasing activity EC50

T1 sequence (O08725 whole entry): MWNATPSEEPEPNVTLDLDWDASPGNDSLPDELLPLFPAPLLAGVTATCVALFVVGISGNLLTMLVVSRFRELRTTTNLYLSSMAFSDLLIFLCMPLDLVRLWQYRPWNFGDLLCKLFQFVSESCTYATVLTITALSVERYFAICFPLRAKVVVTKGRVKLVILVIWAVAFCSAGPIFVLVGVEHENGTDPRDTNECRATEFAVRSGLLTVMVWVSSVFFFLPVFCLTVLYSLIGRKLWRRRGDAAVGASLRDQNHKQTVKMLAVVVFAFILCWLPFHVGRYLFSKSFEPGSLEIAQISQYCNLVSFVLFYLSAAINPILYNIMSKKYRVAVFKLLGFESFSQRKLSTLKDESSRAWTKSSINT

Row | EC50 (rat GHS-receptor (GHR-R); [1]) [nM] | SMILES | also measured
1 | 8.2 | CC(C)C[C@H](NC(=O)[C@H](CCCCN)NC(=O)[C@H](C)NC(=O)[C@@H]1CCCN1C(=O)[C@@H]1CCCN1C(=O)[C@H](CCCCN)NC(=O)[C@H](CCCCN)NC(=O)[C@H](CO)NC(=O)[C@H](CCC(=O)O)NC(=O)[C@H](CCCCN)NC(=O)[C@H](CCCNC(=N)N)NC(=O)[C@H](CCC(N)=O)NC(=O)[C@H](CCC(N)=O)NC(=O)[C@@H](NC(=O)[C@H](CCCNC(=N)N)NC(=O)[C@H](CCC(N)=O)NC(=O)[C@H](Cc1c[nH]cn1)NC(=O)[C@H](CCC(=O)O)NC(=O)[C@@H]1CCCN1C(=O)[C@H](CO)NC(=O)[C@H](CC(C)C)NC(=O)[C@H](Cc1ccccc1)NC(=O)[C@H](Cc1ccc2ccccc2c1)NC(=O)[C@H](CO)NC(=O)CN)C(C)C)C(=O)N[C@@H](CCC(N)=O)C(=O)N1CCC[C@H]1C(=O)N[C@@H](CCCNC(=N)N)C(=O)O [Compound 65, [2-^LNal^3]-hGhrelin] | GH level in plasma in 15 min. after administration, M ± S.D. (IGS-SD strain rats; dose 100 nmol/kg i.v.): 1524 ± 147 ng/mL; GH level in plasma in 15 min. after administration, individual rats (Rat 1-3) (IGS-SD strain rats; dose 100 nmol/kg i.v.): 1637 ng/mL and 1576 ng/mL and 1357 ng/mL
2 | 2.5 | CC(C)(N)C(=O)N[C@@H](Cc1c[nH]cn1)C(=O)N[C@H](Cc1ccc2ccccc2c1)C(=O)N[C@H](Cc1ccccc1)C(=O)N[C@@H](CCCCN)C(N)=O [Compound 80, [Aib^1, His^2, ^DNal^3, ^DPhe^4, Lys^5]-Ghrelin (1-5)-amide, reference compound] (H-[Aib]H[d2Nal][dF]K-NH2) | GH level in plasma in 15 min. after administration, M ± S.D. (IGS-SD strain rats; dose 80 nmol/kg i.v.): 607 ± 503 ng/mL; GH level in plasma in 15 min. after administration, individual rats (Rat 1-3) (IGS-SD strain rats; dose 80 nmol/kg i.v., listed as Ipamorelin): 377 ng/mL and 260 ng/mL and 1184 ng/mL
3 | 1.4 | CC(C)C[C@H](NC(=O)[C@H](CCCCN)NC(=O)[C@H](C)NC(=O)[C@@H]1CCCN1C(=O)[C@@H]1CCCN1C(=O)[C@H](CCCCN)NC(=O)[C@H](CCCCN)NC(=O)[C@H](CO)NC(=O)[C@H](CCC(=O)O)NC(=O)[C@H](CCCCN)NC(=O)[C@H](CCCNC(=N)N)NC(=O)[C@H](CCC(N)=O)NC(=O)[C@H](CCC(N)=O)NC(=O)[C@@H](NC(=O)[C@H](CCCNC(=N)N)NC(=O)[C@H](CCC(N)=O)NC(=O)[C@H](Cc1c[nH]cn1)NC(=O)[C@H](CCC(=O)O)NC(=O)[C@@H]1CCCN1C(=O)[C@H](CO)NC(=O)[C@H](CC(C)C)NC(=O)[C@H](Cc1ccccc1)NC(=O)[C@H](COC(=O)CCc1ccccc1)NC(=O)[C@H](CO)NC(=O)CN)C(C)C)C(=O)N[C@@H](CCC(N)=O)C(=O)N1CCC[C@H]1C(=O)N[C@@H](CCCNC(=N)N)C(=O)O [Compound 15, [Ser^3(3-Phenylpropionyl)]-hGhrelin] | GH level in plasma in 15 min. after administration, M ± S.D. (IGS-SD strain rats; dose 18 nmol/kg i.v.): 1926 ± 299 ng/mL; GH level in plasma in 15 min. after administration, individual rats (Rat 1-3) (IGS-SD strain rats; dose 18 nmol/kg i.v., listed as [Ser^3(Phenylpropionyl)]-hGhrelin): 2119 ng/mL and 2078 ng/mL and 1581 ng/mL; GH-releasing activity (in words) (IGS-SD strain rats): strong GH-releasing activity
4 | 12 | CCCCCCCC(=O)OC[C@H](NC(=O)[C@H](CO)NC(=O)CN)C(=O)N[C@@H](Cc1ccccc1)C(=O)N[C@@H](CC(C)C)C(=O)N[C@@H](CCCCN)C(N)=O [Compound 37, [Lys^6]-Ghrelin (1-6)-amide] (H-GSS(Octanoyl)FLK-NH2) | 
5 |  | CCCCCCCC(=O)OC[C@H](NC(=O)[C@H](CO)NC(=O)CN)C(=O)N[C@@H](Cc1ccccc1)C(=O)N[C@@H](CC(C)C)C(=O)N[C@@H](CO)C(=O)N1CCC[C@H]1C(=O)N[C@@H](CCC(=O)O)C(=O)N[C@@H](Cc1c[nH]cn1)C(=O)N[C@@H](CCC(N)=O)C(=O)O [Compound 25, Ghrelin (1-10)] | EC50 (rat GHS-receptor (GHR-R); Table 3, Example 9: protease fragments or synthetic peptides, CHO-GHSR62 cells, read-out: Ca-releasing activity (EC50)): 19 nM
6 | 35 | CCCCCCCC(=O)OC[C@H](NC(=O)[C@H](Cc1c[nH]cn1)NC(=O)CN)C(=O)N[C@@H](Cc1ccccc1)C(=O)N[C@@H](CC(C)C)C(=O)N[C@@H](CO)C(=O)N1CCC[C@H]1C(N)=O [Compound 45, [His^2]-Ghrelin (1-7)-amide] (H-GHS(Octanoyl)FLSP-NH2) | 
7 | 380 | CCCCCCCC(=O)OC[C@H](NC(=O)CN)C(=O)N[C@@H](Cc1ccccc1)C(=O)N[C@@H](CC(C)C)C(=O)N[C@@H](CO)C(=O)N1CCC[C@H]1C(N)=O [Compound 43, [N-Glycyl]-Ghrelin (3-7)-amide] (H-GS(Octanoyl)FLSP-NH2) | 
8 | 120 | CCCCCCCC(=O)OC[C@H](NC(=O)[C@H](CO)NC(=O)CNC(=O)[C@@H](N)Cc1ccc(O)cc1)C(=O)N[C@@H](Cc1ccccc1)C(=O)N[C@@H](CC(C)C)C(=O)N[C@@H](CO)C(=O)N1CCC[C@H]1C(=O)N[C@@H](CCC(=O)O)C(=O)N[C@@H](Cc1c[nH]cn1)C(=O)N[C@@H](CCC(N)=O)C(=O)N[C@@H](CCCCN)C(=O)N[C@@H](C)C(=O)N[C@@H](CCC(N)=O)C(=O)N[C@@H](CCC(N)=O)C(=O)N[C@@H](CCCNC(=N)N)C(=O)N[C@@H](CCCCN)C(=O)N[C@@H](CCC(=O)O)C(=O)N[C@@H](CO)C(=O)N[C@@H](CCCCN)C(=O)N[C@@H](CCCCN)C(=O)N1CCC[C@H]1C(=O)N1CCC[C@H]1C(=O)N[C@@H](C)C(=O)N[C@@H](CCCCN)C(=O)N[C@@H](CC(C)C)C(=O)N[C@@H](CCC(N)=O)C(=O)N1CCC[C@H]1C(=O)N[C@@H](CCCNC(=N)N)C(=O)O [Compound 42, [N-Tyr]-rGhrelin] | 
9 | 1.2 | CCCCCCCCOC[C@H](NC(=O)[C@H](CO)NC(=O)CN)C(=O)N[C@@H](Cc1ccccc1)C(=O)N[C@@H](CC(C)C)C(=O)N[C@@H](CO)C(=O)N1CCC[C@H]1C(=O)N[C@@H](CCC(=O)O)C(=O)N[C@@H](Cc1c[nH]cn1)C(=O)N[C@@H](CCC(N)=O)C(=O)N[C@@H](CCCNC(=N)N)C(=O)N[C@H](C(=O)N[C@@H](CCC(N)=O)C(=O)N[C@@H](CCC(N)=O)C(=O)N[C@@H](CCCNC(=N)N)C(=O)N[C@@H](CCCCN)C(=O)N[C@@H](CCC(=O)O)C(=O)N[C@@H](CO)C(=O)N[C@@H](CCCCN)C(=O)N[C@@H](CCCCN)C(=O)N1CCC[C@H]1C(=O)N1CCC[C@H]1C(=O)N[C@@H](C)C(=O)N[C@@H](CCCCN)C(=O)N[C@@H](CC(C)C)C(=O)N[C@@H](CCC(N)=O)C(=O)N1CCC[C@H]1C(=O)N[C@@H](CCCNC(=N)N)C(=O)O)C(C)C [Compound 17, [Ser^3(Octyl)]-hGhrelin] | GH level in plasma in 15 min. after administration, M ± S.D. (IGS-SD strain rats; dose 18 nmol/kg i.v.): 1657 ± 75 ng/mL; GH level in plasma in 15 min. after administration, individual rats (Rat 1-3) (IGS-SD strain rats; dose 18 nmol/kg i.v.): 1626 ng/mL and 1602 ng/mL and 1743 ng/mL; GH-releasing activity (in words) (IGS-SD strain rats): strong GH-releasing activity
10 | 7.6 | CC(C)C[C@H](NC(=O)[C@H](CCCCN)NC(=O)[C@H](C)NC(=O)[C@@H]1CCCN1C(=O)[C@@H]1CCCN1C(=O)[C@H](CCCCN)NC(=O)[C@H](CCCCN)NC(=O)[C@H](CO)NC(=O)[C@H](CCC(=O)O)NC(=O)[C@H](CCCCN)NC(=O)[C@H](CCCNC(=N)N)NC(=O)[C@H](CCC(N)=O)NC(=O)[C@H](CCC(N)=O)NC(=O)[C@@H](NC(=O)[C@H](CCCNC(=N)N)NC(=O)[C@H](CCC(N)=O)NC(=O)[C@H](Cc1c[nH]cn1)NC(=O)[C@H](CCC(=O)O)NC(=O)[C@@H]1CCCN1C(=O)[C@H](CO)NC(=O)[C@H](CC(C)C)NC(=O)[C@H](Cc1ccccc1)NC(=O)[C@H](COCc1ccccc1)NC(=O)[C@H](CO)NC(=O)CN)C(C)C)C(=O)N[C@@H](CCC(N)=O)C(=O)N1CCC[C@H]1C(=O)N[C@@H](CCCNC(=N)N)C(=O)O [Compound 67, [Ser^3(Bzl)]-hGhrelin] | 
11 | 6.5 | CCCCCCCCCCCCCCCC(=O)OC[C@H](NC(=O)[C@H](CO)NC(=O)CN)C(=O)N[C@@H](Cc1ccccc1)C(=O)N[C@@H](CC(C)C)C(=O)N[C@@H](CO)C(=O)N1CCC[C@H]1C(=O)N[C@@H](CCC(=O)O)C(=O)N[C@@H](Cc1c[nH]cn1)C(=O)N[C@@H](CCC(N)=O)C(=O)N[C@@H](CCCCN)C(=O)N[C@@H](C)C(=O)N[C@@H](CCC(N)=O)C(=O)N[C@@H](CCC(N)=O)C(=O)N[C@@H](CCCNC(=N)N)C(=O)N[C@@H](CCCCN)C(=O)N[C@@H](CCC(=O)O)C(=O)N[C@@H](CO)C(=O)N[C@@H](CCCCN)C(=O)N[C@@H](CCCCN)C(=O)N1CCC[C@H]1C(=O)N1CCC[C@H]1C(=O)N[C@@H](C)C(=O)N[C@@H](CCCCN)C(=O)N[C@@H](CC(C)C)C(=O)N[C@@H](CCC(N)=O)C(=O)N1CCC[C@H]1C(=O)N[C@@H](CCCNC(=N)N)C(=O)O [Compound 14, [Ser^3(Palmitoyl)]-rGhrelin] | 
12 | 11 | CCCCCCCC(=O)OC[C@H](NC(=O)[C@H](CO)NC(=O)CN)C(=O)N[C@@H](Cc1ccccc1)C(=O)N[C@@H](CC(C)C)C(=O)N[C@@H](CO)C(=O)N[C@@H](CCCCN)C(N)=O [Compound 75, [Lys^7]-Ghrelin (1-7)-amide] (H-GSS(Octanoyl)FLSK-NH2) | 
13 | 280 | CCCC(=O)OC[C@H](NC(=O)[C@H](CO)NC(=O)CN)C(=O)N[C@@H](Cc1ccccc1)C(=O)N[C@@H](CC(C)C)C(=O)N[C@@H](CO)C(=O)N1CCC[C@H]1C(=O)N[C@@H](CCC(=O)O)C(=O)N[C@@H](Cc1c[nH]cn1)C(=O)N[C@@H](CCC(N)=O)C(=O)N[C@@H](CCCCN)C(=O)N[C@@H](C)C(=O)N[C@@H](CCC(N)=O)C(=O)N[C@@H](CCC(N)=O)C(=O)N[C@@H](CCCNC(=N)N)C(=O)N[C@@H](CCCCN)C(=O)N[C@@H](CCC(=O)O)C(=O)N[C@@H](CO)C(=O)N[C@@H](CCCCN)C(=O)N[C@@H](CCCCN)C(=O)N1CCC[C@H]1C(=O)N1CCC[C@H]1C(=O)N[C@@H](C)C(=O)N[C@@H](CCCCN)C(=O)N[C@@H](CC(C)C)C(=O)N[C@@H](CCC(N)=O)C(=O)N1CCC[C@H]1C(=O)N[C@@H](CCCNC(=N)N)C(=O)O [Compound 10, [Ser^3(Butyryl)]-rGhrelin] | 
